The text below walks through data of PMC8468421, “Synthesis and Biological Evaluation of 1,2,3-Triazole Tethered Thymol-1,3,4-Oxadiazole Derivatives as Anticancer and Antimicrobial Agents” (Pharmaceuticals, 2021).

One data set concerns HepG2. As to the kind of experiment: Antiproliferative activity, MTT assay, HepG2. The settings on record: for IC50: Homo sapiens, HepG2, read-out: Cytotoxicity IC50 HepG2. An excerpt: (§1) The compounds were screened on breast (MCF-7), liver (HepG2), and colorectal (HCT-116) cancer cells, obtained from American Type culture Collection (ATCC); 0.1% of DMSO was used as a vehicle control.
In general terms: Tetrazolium dyes change colour on reduction, which living cells bring about.

A further data set deals with MCF-7. Kind of data set: Antiproliferative activity, MTT assay, MCF-7. Particulars: for IC50: Homo sapiens, MCF7, read-out: Cytotoxicity IC50 MCF-7.
Source text: as §1

A further data set has as its system S. aureus (ATCC 29213). Kind of data set: Antimicrobial activity, agar well zone of inhibition, S. aureus. Type of data set: cell-based, Staphylococcus aureus. Particulars: 10 μL of 10 mg/mL in 50% DMSO per well, overnight 37 °C, --- = no zone of inhibition; for zone of inhibition at 10000 µg/mL: Staphylococcus aureus, ATCC29213. The procedure: (§2) The antimicrobial activity of the final compounds was performed by reported methods.The bacterial strains, E. coli (Gram negative), S. aureus (Gram positive), and fungi, Candida albicans, were used for the study. Luria broth Agar and Sabouraud Dextrose Agar were prepared into a petri dish using 25 mL of autoclaved media; 100 μL of diluted broth of freshly prepared E. coli, S. aureus, and C. albicans were spread on Luria Broth Agar and Sabouraud Agar plates, respectively. Then, 7 wells of 50 μL capacity were punched on each plate. Samples 5–18 (10 μL of 10 mg/mL standard prepared in 50% DMSO) were placed in each plate’s well in different plate sets. All the plates were incubated for overnight at 37 °C in an incubator shaker. The inhibition zone was calculated in triplicate.

In another data set the test system is HCT-116. As to the kind of experiment: Antiproliferative activity, MTT assay, HCT-116. Particulars: Homo sapiens, HCT-116, read-out: Cytotoxicity IC50 HCT-116.
Source text: as §1

The test system of a further data set is E. coli (ATCC 31218). As to the kind of experiment: Antimicrobial activity, agar well zone of inhibition, E. coli. Format: cell-based, Escherichia coli. Particulars: 10 μL of 10 mg/mL in 50% DMSO per well, overnight 37 °C, --- = no zone of inhibition; for zone of inhibition at 10000 µg/mL: Escherichia coli, ATCC31218. The procedure:
as §2

Data set [1] concerns the target Thymidylate synthase (TS) (Homo sapiens, UniProt P04818). Kind of data set: Thymidylate synthase (TS) enzymatic assay.
Another data set relates to C. albicans (ATCC 10231). Kind of data set: Antifungal activity, agar well zone of inhibition, C. albicans. Particulars: 10 μL of 10 mg/mL in 50% DMSO per well, overnight 37 °C, --- = no zone of inhibition. Type of data set: cell-based, Candida albicans. The procedure: as §2

Sequence of Thymidylate synthase (TS) (P04818 whole entry): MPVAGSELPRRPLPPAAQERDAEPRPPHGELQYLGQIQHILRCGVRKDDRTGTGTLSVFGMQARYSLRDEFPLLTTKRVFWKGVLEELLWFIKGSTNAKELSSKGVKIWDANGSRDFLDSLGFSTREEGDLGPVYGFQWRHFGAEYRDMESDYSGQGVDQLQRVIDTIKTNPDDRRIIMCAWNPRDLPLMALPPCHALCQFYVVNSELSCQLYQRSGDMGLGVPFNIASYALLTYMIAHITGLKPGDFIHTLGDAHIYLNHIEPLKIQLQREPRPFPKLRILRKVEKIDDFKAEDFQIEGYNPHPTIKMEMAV

As usually defined, the melting point is the temperature of the solid-liquid transition. One may read the IC50 as the point on the concentration scale where inhibition reaches its midpoint. By zone of inhibition is commonly meant the size of the clear area around the sample on an inoculated plate. A low value points to little suppression of growth. As for `COc1ccccc1-n1cc(CSc2nnc(COc3cc(C)ccc3C(C)C)o2)nn1` [Compound 7, 4-((5-((2-isopropyl-5-methylphenoxy)methyl)-1,3,4-oxadiazol-2-ylthio)methyl)-1-(2-methoxyphenyl)-1H-1,2,3-triazole], the melting point fell in the range of 81 to 83 °C. Besides, in the data set with HepG2, the “fold active relative to 5-FU, HepG2” value was 16 fold and the IC50 came out at 1800 nM. In addition, in the data set with MCF-7, the IC50 turned out to be 2400 nM. In the data set with S. aureus (ATCC 29213), the “zone of inhibition S. aureus” value amounted to 12 ± 0.34 mm and the zone of inhibition at 10000 µg/mL amounted to 12 mm. In the data set on HCT-116, the IC50 was 3100 nM. Further, in the data set on E. coli (ATCC 31218), the “zone of inhibition E. coli” value came out at 12 ± 0.34 mm and the zone of inhibition at 10000 µg/mL was found to be 12 mm. The compound also displayed a concentration for half-maximal inhibition (IC50) in data set [1] of 3520 ± 1200 nM.

In turn, `Cc1ccc(C(C)C)c(OCc2nnc(SCc3cn(-c4ccccc4O)nn3)o2)c1` [Compound 9, 2-(4-((5-((2-isopropyl-5-methylphenoxy)methyl)-1,3,4-oxadiazol-2-ylthio)methyl)-1H-1,2,3-triazol-1-yl)phenol] displayed a melting point of 86 to 88 °C. Besides, in the data set with HepG2, the “fold active relative to 5-FU, HepG2” value is reported as 20 fold and the IC50 came out at 1400 nM. In addition, in the data set on MCF-7 ((IC50 18.74 μM)), the “times active relative to 5-florouracil, MCF-7” value worked out at 17 times. In the data set with MCF-7, the IC50 is 1100 nM. Further, the “zone of inhibition C. albicans” value with C. albicans (ATCC 10231) came out at 10 ± 0.032 mm. Also, in the data set with C. albicans (ATCC 10231) (Candida albicans, ATCC10231), the zone of inhibition at 10000 µg/mL turned out to be 10 mm. Besides, in the data set on S. aureus (ATCC 29213), the “zone of inhibition S. aureus” value is 12 ± 0.34 mm and the zone of inhibition at 10000 µg/mL was determined as 12 mm. In addition, the IC50 with HCT-116 came to 2600 nM. For the same compound, in the data set with E. coli (ATCC 31218), the “zone of inhibition E. coli” value is 12 ± 0.36 mm and the zone of inhibition at 10000 µg/mL was 12 mm. Half-maximal inhibition in data set [1] (IC50) was put at 1950 ± 900 nM.
